Experimental data from US5560907A, “Whitening embellisher” (Eisai Co., Ltd., priority 1992, dated 1996).

Assays:
[1] = test system: B16 melanoma cells derived from a mouse; assay: Restraint of melanin production in cultured B16 melanoma cells
[2] = test system: tyrosinase, derived from mushroom; assay: Inhibition of enzyme activity of mushroom tyrosinase; type: biochemical; conditions: concentration of 0.01-0.1%
[3] = test system: tyrosinase in the B16 melanoma cells; assay: Amount of tyrosinase in B16 melanoma cells by SDS-PAGE; type: cell-based, mouse; conditions: culture systems added with teprenone
[4] = Solubility in water; type: physicochemical
Text: The whitening and beautifying preparation suitable for use in a bath according to the present invention means a preparation which can be dissolved in hot water in a bathtub upon bathing to use it, and can be provided as tablets, granules, powder, liquid or the like. It can be formulated according to any process generally used.

[5] = Mus musculus, B16, read-out: production of melanin restrained, to control

solubility in water [4]	Structure (SMILES)	concentration essential for attaining the same effect of the combined use as kojic acid ([1]; arbutin combined with teprenone, equals 10-30 ppm)	action to inhibit the enzyme activity of tyrosinase [2]	amount of tyrosinase in the B16 melanoma cells [3]	inhibition at 0.0001 % [1, 5] [%]	inhibition at 0.0002 % [1, 5] [%]	inhibition at 0.0003 % [1, 5] [%]	reversibility of the melanin inhibiting action ([1]; cells cultured again in a system containing no teprenone, melanin greatly increased)	cytotoxicity ([1]; sample concentrations 1×10^-4 to 3×10^-4 %)
	OC[C@H]1O[C@@H](Oc2ccc(O)cc2)[C@H](O)[C@@H](O)[C@@H]1O [arbutin]	1×10^-3 -3×10^-3%							
insoluble in water	CC(=O)CCC=C(C)CCC=C(C)CCC=C(C)CCC=C(C)C [teprenone, geranylgeranylacetone]		did not exhibit any action to inhibit the enzyme activity	decreased in proportion to the concentration of teprenone added	85	80	70	reversible inhibiting action	no cytotoxicity was recognized
